Measurements published in ChEMBL document CHEMBL4507274 (2021).

Columns and labels:
[1] = molecular target: Serine/threonine-protein kinase 10 (Homo sapiens) (UniProt O94804); settings: Compound concentration 100.0 nM
[2] = molecular target: Calcium/calmodulin-dependent protein kinase type II subunit gamma (Homo sapiens) (UniProt Q13555); settings: Compound concentration 100.0 nM
[3] = molecular target: Dual specificity mitogen-activated protein kinase kinase 2 (Homo sapiens) (UniProt P36507); settings: Compound concentration 100.0 nM
[4] = molecular target: Serine/threonine-protein kinase Sgk3 (Homo sapiens) (UniProt Q96BR1); settings: Compound concentration 100.0 nM
[5] = molecular target: Calcium/calmodulin-dependent protein kinase type II subunit delta (Homo sapiens) (UniProt Q13557); settings: Compound concentration 100.0 nM
[6] = molecular target: Ribosomal protein S6 kinase alpha-4 (Homo sapiens) (UniProt O75676); settings: Compound concentration 100.0 nM
[7] = molecular target: RAF proto-oncogene serine/threonine-protein kinase (Homo sapiens) (UniProt P04049); settings: Compound concentration 100.0 nM
[8] = molecular target: Serine/threonine-protein kinase DCLK3 (Homo sapiens) (UniProt Q9C098); settings: Compound concentration 100.0 nM
[9] = molecular target: G protein-coupled receptor kinase 3 (Homo sapiens) (UniProt P35626); settings: Compound concentration 100.0 nM
G protein-coupled receptor kinase 3 (Homo sapiens), sequence (P35626 whole entry): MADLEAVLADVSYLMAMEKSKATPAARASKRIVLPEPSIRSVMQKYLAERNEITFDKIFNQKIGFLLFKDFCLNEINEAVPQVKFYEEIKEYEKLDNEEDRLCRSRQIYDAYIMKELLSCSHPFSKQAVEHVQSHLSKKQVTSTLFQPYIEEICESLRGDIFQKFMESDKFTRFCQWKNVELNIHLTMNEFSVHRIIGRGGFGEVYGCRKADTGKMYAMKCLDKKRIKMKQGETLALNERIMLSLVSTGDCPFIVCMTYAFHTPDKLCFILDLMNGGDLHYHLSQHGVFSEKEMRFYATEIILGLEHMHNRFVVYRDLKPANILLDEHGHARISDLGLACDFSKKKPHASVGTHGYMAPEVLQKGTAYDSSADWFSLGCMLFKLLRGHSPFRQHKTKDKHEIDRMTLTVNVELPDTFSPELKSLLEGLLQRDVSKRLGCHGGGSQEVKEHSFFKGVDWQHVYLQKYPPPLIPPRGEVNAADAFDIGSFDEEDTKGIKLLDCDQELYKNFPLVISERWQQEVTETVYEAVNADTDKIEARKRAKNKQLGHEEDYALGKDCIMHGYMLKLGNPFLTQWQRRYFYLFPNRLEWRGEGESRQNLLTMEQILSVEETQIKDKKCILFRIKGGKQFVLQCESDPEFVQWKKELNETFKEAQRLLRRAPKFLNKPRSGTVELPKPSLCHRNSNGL

[10] = molecular target: Dual specificity testis-specific protein kinase 1 (Homo sapiens) (UniProt Q15569); settings: Compound concentration 100.0 nM
[11] = molecular target: Non-receptor tyrosine-protein kinase TYK2 (Homo sapiens) (UniProt P29597); settings: Compound concentration 100.0 nM
[12] = molecular target: 1-phosphatidylinositol 3-phosphate 5-kinase (Homo sapiens) (UniProt Q9Y2I7); settings: Compound concentration 100.0 nM
[13] = molecular target: Serine/threonine-protein kinase ULK2 (Homo sapiens) (UniProt Q8IYT8); settings: Compound concentration 100.0 nM
[14] = molecular target: Tyrosine-protein kinase JAK1 (Homo sapiens) (UniProt P23458); settings: Compound concentration 100.0 nM
Tyrosine-protein kinase JAK1 (Homo sapiens), sequence (P23458 whole entry): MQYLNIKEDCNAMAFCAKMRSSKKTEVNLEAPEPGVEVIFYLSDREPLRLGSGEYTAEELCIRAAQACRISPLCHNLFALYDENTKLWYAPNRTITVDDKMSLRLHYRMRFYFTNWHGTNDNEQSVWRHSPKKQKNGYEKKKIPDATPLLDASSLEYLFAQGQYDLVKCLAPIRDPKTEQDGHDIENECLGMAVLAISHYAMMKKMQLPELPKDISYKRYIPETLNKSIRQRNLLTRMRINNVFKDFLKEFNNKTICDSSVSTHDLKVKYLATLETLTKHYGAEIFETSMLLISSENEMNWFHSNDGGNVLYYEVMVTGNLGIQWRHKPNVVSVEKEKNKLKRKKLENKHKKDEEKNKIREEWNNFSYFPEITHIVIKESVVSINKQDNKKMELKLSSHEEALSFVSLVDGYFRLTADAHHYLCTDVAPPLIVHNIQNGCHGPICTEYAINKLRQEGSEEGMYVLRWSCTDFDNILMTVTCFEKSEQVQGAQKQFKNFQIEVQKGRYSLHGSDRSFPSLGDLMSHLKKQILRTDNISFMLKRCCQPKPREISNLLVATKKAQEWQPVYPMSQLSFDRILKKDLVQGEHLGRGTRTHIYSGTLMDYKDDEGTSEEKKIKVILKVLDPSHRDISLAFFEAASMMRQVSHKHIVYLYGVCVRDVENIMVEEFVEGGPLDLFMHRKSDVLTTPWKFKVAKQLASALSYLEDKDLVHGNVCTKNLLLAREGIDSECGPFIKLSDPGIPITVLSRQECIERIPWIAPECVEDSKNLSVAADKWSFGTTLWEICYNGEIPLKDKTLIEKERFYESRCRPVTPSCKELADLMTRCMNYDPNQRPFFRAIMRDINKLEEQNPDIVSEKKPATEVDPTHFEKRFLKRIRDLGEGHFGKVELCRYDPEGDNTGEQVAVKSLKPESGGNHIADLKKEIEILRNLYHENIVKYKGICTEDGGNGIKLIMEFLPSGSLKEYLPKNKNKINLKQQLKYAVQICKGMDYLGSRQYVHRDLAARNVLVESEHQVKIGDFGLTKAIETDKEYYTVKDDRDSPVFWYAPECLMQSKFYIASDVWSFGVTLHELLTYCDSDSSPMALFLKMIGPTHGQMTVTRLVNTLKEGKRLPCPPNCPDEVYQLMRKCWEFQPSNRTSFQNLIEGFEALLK

[15] = molecular target: Cyclin-dependent kinase 3 (Homo sapiens) (UniProt Q00526); settings: Compound concentration 100.0 nM
Cyclin-dependent kinase 3 (Homo sapiens), sequence (Q00526 whole entry, looked up): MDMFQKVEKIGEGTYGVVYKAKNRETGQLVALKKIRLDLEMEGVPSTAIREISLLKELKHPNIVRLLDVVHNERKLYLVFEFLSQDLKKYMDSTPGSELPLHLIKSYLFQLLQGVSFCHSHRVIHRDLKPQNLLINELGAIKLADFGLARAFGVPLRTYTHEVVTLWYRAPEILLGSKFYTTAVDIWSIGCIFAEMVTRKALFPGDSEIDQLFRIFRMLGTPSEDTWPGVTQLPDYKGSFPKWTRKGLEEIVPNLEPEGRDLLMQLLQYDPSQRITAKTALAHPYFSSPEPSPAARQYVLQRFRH

[16] = molecular target: Serine/threonine-protein kinase MARK2 (Homo sapiens) (UniProt Q7KZI7); settings: Compound concentration 100.0 nM
[17] = tested on: Tyrosine-protein kinase ABL1 (Homo sapiens), P00519 [E255K]; settings: Compound concentration 100.0 nM
[18] = molecular target: T1, Serine/threonine-protein kinase Sgk1 (Homo sapiens) (UniProt O00141); settings: Compound concentration 100.0 nM
T1 sequence (whole entry): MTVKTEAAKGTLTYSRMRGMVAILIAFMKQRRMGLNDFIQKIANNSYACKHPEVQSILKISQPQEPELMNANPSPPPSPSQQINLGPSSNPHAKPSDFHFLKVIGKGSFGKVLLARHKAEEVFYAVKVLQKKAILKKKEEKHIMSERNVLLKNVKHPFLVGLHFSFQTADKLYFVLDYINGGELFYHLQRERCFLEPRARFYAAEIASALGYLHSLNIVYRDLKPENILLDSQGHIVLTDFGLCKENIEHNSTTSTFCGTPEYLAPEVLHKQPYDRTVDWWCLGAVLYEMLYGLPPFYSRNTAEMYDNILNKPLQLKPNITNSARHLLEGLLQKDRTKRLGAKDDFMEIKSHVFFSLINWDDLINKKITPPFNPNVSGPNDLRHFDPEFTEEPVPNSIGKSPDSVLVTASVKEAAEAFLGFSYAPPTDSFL

[19] = tested on: Hepatocyte growth factor receptor (Homo sapiens), P08581 [M1250T]; settings: Compound concentration 100.0 nM
[20] = molecular target: Hormonally up-regulated neu tumor-associated kinase (Homo sapiens) (UniProt P57058); settings: Compound concentration 100.0 nM
[21] = molecular target: Cyclin-dependent kinase 11A (Homo sapiens) (UniProt Q9UQ88); settings: Compound concentration 100.0 nM
[22] = molecular target: Serine/threonine-protein kinase Nek5 (Homo sapiens) (UniProt Q6P3R8); settings: Compound concentration 100.0 nM
[23] = molecular target: D(2) dopamine receptor (Homo sapiens) (UniProt P14416); settings: Compound concentration 10.0 uM
[24] = molecular target: Serine/threonine-protein kinase MARK1 (Homo sapiens) (UniProt Q9P0L2); settings: Compound concentration 100.0 nM
[25] = molecular target: Alpha-2B adrenergic receptor (Homo sapiens) (UniProt P18089); settings: Compound concentration 10.0 uM
[26] = molecular target: Serine/threonine-protein kinase WNK2 (Homo sapiens) (UniProt Q9Y3S1); settings: Compound concentration 100.0 nM
[27] = molecular target: Muscarinic acetylcholine receptor M1 (Homo sapiens) (UniProt P11229); settings: Compound concentration 10.0 uM
[28] = molecular target: Serine/threonine-protein kinase RIO1 (Homo sapiens) (UniProt Q9BRS2); settings: Compound concentration 100.0 nM
Serine/threonine-protein kinase RIO1 (Homo sapiens), sequence (Q9BRS2 whole entry): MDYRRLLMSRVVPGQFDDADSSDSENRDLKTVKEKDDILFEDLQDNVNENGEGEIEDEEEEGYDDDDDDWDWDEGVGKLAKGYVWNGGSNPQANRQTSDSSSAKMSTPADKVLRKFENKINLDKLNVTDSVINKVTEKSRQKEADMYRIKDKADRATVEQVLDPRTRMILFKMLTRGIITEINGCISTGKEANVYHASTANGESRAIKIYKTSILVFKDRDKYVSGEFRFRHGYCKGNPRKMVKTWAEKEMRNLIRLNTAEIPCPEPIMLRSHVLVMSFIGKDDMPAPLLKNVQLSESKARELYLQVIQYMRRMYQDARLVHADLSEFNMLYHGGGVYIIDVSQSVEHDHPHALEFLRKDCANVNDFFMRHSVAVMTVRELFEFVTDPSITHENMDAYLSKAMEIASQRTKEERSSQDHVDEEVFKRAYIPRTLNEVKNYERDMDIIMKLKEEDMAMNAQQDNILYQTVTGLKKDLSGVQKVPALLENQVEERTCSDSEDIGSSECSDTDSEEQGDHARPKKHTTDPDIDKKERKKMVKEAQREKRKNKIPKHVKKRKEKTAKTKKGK

[29] = molecular target: Mitogen-activated protein kinase kinase kinase 6 (Homo sapiens) (UniProt O95382); settings: Compound concentration 100.0 nM
[30] = molecular target: Ribosomal protein S6 kinase alpha-2 (Homo sapiens) (UniProt Q15349); settings: Compound concentration 100.0 nM
[31] = molecular target: MAP kinase-interacting serine/threonine-protein kinase 2 (Homo sapiens) (UniProt Q9HBH9); settings: Compound concentration 100.0 nM
[32] = molecular target: 5-hydroxytryptamine receptor 2C (Homo sapiens) (UniProt P28335); settings: Compound concentration 10.0 uM
[33] = tested on: eIF-2-alpha kinase GCN2 (Homo sapiens), Q9P2K8 [S808G]; settings: Compound concentration 100.0 nM
eIF-2-alpha kinase GCN2 (Homo sapiens), Q9P2K8 [S808G], sequence (Q9P2K8 whole entry S808G): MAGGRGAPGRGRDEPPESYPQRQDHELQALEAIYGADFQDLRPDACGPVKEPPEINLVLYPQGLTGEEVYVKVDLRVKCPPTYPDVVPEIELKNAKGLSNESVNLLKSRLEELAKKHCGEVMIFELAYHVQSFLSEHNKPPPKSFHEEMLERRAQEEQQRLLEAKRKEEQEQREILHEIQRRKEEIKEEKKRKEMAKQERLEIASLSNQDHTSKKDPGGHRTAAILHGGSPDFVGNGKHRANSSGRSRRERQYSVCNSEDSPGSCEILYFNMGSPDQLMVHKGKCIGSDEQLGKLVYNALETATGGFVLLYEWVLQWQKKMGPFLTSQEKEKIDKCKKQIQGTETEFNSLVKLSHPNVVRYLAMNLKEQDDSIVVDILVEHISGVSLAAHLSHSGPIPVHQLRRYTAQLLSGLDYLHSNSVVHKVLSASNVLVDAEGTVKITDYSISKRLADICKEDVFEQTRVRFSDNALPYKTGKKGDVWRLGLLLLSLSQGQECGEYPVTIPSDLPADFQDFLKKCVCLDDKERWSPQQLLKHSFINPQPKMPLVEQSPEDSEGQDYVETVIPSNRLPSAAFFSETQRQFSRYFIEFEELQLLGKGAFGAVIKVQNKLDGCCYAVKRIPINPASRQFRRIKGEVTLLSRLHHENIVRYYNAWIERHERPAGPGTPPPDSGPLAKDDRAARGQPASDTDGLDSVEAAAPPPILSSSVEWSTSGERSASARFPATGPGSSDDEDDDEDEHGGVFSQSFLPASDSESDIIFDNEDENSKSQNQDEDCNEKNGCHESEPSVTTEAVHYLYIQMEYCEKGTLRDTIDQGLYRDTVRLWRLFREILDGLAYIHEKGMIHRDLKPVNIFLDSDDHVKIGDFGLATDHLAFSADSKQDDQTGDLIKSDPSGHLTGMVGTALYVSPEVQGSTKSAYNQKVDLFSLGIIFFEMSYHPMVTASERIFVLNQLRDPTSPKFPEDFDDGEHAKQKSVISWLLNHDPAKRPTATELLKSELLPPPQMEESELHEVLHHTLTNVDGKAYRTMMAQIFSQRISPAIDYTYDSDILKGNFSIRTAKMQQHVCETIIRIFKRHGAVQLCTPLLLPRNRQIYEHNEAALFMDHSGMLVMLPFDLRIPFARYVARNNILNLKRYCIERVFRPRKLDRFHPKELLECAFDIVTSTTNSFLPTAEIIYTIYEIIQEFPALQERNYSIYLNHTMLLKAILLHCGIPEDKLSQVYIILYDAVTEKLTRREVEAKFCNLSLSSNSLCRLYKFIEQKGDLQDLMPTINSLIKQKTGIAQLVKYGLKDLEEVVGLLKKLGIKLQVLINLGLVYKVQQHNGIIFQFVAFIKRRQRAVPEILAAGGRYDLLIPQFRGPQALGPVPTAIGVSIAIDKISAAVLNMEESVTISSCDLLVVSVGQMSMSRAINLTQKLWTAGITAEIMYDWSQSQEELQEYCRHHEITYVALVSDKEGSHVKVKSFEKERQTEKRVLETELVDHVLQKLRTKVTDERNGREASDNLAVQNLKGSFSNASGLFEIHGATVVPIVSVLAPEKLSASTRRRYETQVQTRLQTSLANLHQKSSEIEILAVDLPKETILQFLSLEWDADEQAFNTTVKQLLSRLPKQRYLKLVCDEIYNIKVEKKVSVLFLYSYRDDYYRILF

[34] = molecular target: Protein-tyrosine kinase 6 (Homo sapiens) (UniProt Q13882); settings: Compound concentration 100.0 nM
Protein-tyrosine kinase 6 (Homo sapiens), sequence (Q13882 whole entry, looked up): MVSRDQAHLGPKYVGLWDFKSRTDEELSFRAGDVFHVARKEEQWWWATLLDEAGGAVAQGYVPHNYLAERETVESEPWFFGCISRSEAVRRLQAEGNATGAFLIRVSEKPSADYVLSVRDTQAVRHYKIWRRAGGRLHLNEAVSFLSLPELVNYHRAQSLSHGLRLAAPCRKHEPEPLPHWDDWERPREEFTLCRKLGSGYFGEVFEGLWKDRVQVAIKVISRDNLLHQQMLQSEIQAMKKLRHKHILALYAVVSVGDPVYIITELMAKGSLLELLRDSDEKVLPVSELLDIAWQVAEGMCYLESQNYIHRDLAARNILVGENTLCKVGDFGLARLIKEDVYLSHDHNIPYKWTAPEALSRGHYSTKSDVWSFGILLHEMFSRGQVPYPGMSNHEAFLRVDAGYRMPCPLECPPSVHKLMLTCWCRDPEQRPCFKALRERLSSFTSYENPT

[35] = molecular target: Mitogen-activated protein kinase kinase kinase 2 (Homo sapiens) (UniProt Q9Y2U5); settings: Compound concentration 100.0 nM
[36] = molecular target: Mitogen-activated protein kinase 1 (Homo sapiens) (UniProt P28482); settings: Compound concentration 100.0 nM
[37] = molecular target: Casein kinase I isoform epsilon (Homo sapiens) (UniProt P49674); settings: Compound concentration 100.0 nM
[38] = molecular target: Cyclin-dependent kinase 7 (Homo sapiens) (UniProt P50613); settings: Compound concentration 100.0 nM
[39] = molecular target: Ribosomal protein S6 kinase alpha-1 (Homo sapiens) (UniProt Q15418); settings: Compound concentration 100.0 nM

Cc1c[nH]c2nccc(Oc3c(F)cc(Nc4cc(Cl)nc(N)n4)cc3F)c12 [BAY-549]
inactive: residual activity [1] 100% | residual activity [2] 96% | residual activity [3] 91% | residual activity [4] 88% | residual activity [5] 90% | residual activity [6] 100% | residual activity [7] 75% | residual activity [8] 97% | residual activity [9] 78% | residual activity [10] 100% | residual activity [11] 89% | residual activity [12] 98% | residual activity [13] 89% | residual activity [14] 80% | residual activity [15] 97% | residual activity [16] 100% | residual activity [17] 100% | residual activity [18] 74% | residual activity [19] 99% | residual activity [20] 100% | residual activity [21] 100% | residual activity [22] 97% | inhibition [23] -4.56% | residual activity [24] 82% | inhibition [25] 11.7% | residual activity [26] 96% | inhibition [27] -0.22% | residual activity [28] 100% | residual activity [29] 100% | residual activity [30] 100% | residual activity [31] 90% | inhibition [32] 22.1% | residual activity [33] 100% | residual activity [34] 100% | residual activity [35] 89% | residual activity [36] 99% | residual activity [37] 64% | residual activity [38] 91% | residual activity [39] 91%

Cn1cc(Cl)c2c(Oc3c(F)cc(Nc4cc(Cl)nc(N)n4)cc3F)ccnc21 [BAY-4900]
inactive: residual activity [1] 100% | residual activity [2] 100% | residual activity [3] 100% | residual activity [4] 90% | residual activity [5] 95% | residual activity [6] 87% | residual activity [7] 91% | residual activity [8] 89% | residual activity [9] 83% | residual activity [10] 100% | residual activity [11] 85% | residual activity [12] 91% | residual activity [13] 100% | residual activity [14] 89% | residual activity [15] 100% | residual activity [16] 100% | residual activity [17] 100% | residual activity [18] 80% | residual activity [19] 100% | residual activity [20] 100% | residual activity [21] 100% | residual activity [22] 100% | inhibition [23] 1.05% | residual activity [24] 100% | inhibition [25] -4.05% | residual activity [26] 88% | inhibition [27] -5.04% | residual activity [28] 100% | residual activity [29] 100% | residual activity [30] 100% | residual activity [31] 90% | inhibition [32] 2.72% | residual activity [33] 100% | residual activity [34] 86% | residual activity [35] 79% | residual activity [36] 100% | residual activity [37] 98% | residual activity [38] 100% | residual activity [39] 86%
